Where two headings read alike, the source gives them in different places.
Columns and labels:
[1] = target: T1, cytoplasmic domain of the human CSF-1R (Homo sapiens, UniProt P07333); assay: In vitro kinase assay for colony stimulating factor-1 receptor (AlphaScreen); format: biochemical; conditions: tested at about 1 μM, read-out: CSF-1R percent inhibition
T1 construct: Recombinant protein corresponding to the cytoplasmic domain of the human CSF-1R; purchased Invitrogen Corporation, Carlsbad, Calif; PV3249
T1 sequence (P07333 539-972 limits assumed): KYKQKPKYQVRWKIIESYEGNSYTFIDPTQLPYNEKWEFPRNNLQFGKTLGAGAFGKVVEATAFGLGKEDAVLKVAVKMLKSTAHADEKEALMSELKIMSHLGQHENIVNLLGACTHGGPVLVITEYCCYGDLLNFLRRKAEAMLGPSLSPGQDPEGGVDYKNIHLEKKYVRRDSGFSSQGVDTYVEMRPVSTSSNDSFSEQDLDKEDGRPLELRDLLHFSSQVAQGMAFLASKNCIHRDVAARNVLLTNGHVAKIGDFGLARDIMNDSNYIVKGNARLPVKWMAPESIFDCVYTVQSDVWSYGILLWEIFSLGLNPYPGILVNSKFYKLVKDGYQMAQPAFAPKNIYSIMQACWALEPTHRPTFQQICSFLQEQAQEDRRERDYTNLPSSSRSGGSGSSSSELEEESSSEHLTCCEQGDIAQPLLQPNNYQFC
Outline: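 4 nM enzyme, 1 μM ATP; buffer 50 mM Hepes pH 7.5, 5 mM MgCl2, 10 mM MnCl2, 1.0 mM DTT, 0.1% BSA, 0.01% Tween 80. Readout: AlphaScreen, PT66 acceptor/streptavidin donor, overnight.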

kinase domain of cKIT = target: T2, kinase domain of cKIT (Homo sapiens, UniProt P10721); assay: Inhibition of cKIT kinase signaling in an in vitro biochemical assay (alphascreen); conditions: tested at about 1 μM, read-out: cKit percent inhibition
T2 construct: The kinase domain of cKIT was assayed in 50 mM Hepes; purchased Upstate 14-559
T2 sequence (P10721 589-937 limits assumed): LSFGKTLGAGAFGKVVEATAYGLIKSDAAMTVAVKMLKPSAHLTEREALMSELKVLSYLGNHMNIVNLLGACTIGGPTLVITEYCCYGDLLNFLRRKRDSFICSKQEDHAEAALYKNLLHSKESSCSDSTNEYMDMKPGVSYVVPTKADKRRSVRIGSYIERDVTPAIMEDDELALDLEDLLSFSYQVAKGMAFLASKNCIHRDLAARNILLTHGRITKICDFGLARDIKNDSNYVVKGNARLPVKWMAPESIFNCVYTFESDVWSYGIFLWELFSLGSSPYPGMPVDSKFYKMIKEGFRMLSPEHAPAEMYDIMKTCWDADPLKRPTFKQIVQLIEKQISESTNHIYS

kinase domain of PDGFRβ = target: T3, kinase domain of PDGFRβ (Homo sapiens, UniProt P09619); assay: Inhibition of PDGFRb kinase signaling in an in vitro biochemical assay (alphascreen); conditions: tested at about 1 μM, read-out: PDGFRβ percent inhibition
T3 construct: The kinase domain of PDGFRβ was assayed in 50 mM Hepes; purchased Invitrogen P3082
T3 sequence (P09619 600-962 limits assumed): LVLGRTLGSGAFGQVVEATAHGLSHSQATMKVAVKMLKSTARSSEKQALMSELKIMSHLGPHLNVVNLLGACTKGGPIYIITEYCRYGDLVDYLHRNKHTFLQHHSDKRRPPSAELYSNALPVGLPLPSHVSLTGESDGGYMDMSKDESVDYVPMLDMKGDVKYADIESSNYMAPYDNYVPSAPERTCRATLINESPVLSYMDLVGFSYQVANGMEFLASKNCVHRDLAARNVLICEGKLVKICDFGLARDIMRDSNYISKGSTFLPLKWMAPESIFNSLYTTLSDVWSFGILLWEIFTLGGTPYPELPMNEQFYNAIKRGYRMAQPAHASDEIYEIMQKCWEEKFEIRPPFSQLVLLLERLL

[2] = system: MNFS60 (murine AML cells); assay: Cell viability assay in MCSF dependent MNFS60 cells (Cell Titer Glo); format: cell-based; conditions: Mus musculus, tested at about 1 μM, read-out: M-NFS-60 CP percent inhibition
Description: Cell viability was assessed by Cell Titer Glo, Promega. […] Test compounds were serially diluted (3 fold) in DMSO to 500× the final concentration. […] Final concentration of MCSF is 10 ng/ml. Cells were incubated for 72 hrs at 37° C., 5% CO2. After the incubation 100 μl Cell Titer Glo is added to each well to determine viable cells. The assay was performed according to the manufacturer's instruction (Promega Corporation, Madison, Wis. USA). Each experimental condition was performed in triplicate. Raw data was imported in Abase and EC50s calculated with XL-fit data analysis software.

inhibition at 1 µM [1] [%] | inhibition at 1 µM (kinase domain of cKIT) [%] | inhibition at 1 µM (kinase domain of PDGFRβ) [%] | inhibition at 1 µM ([1]; compounds of Table 3) [%] | inhibition at 1 µM (kinase domain of cKIT; compounds of Table 3) [%] | inhibition at 1 µM (kinase domain of PDGFRβ; compounds of Table 3) [%] | Structure (SMILES) | inhibition at 1 µM ([2]; MNFS60 cells) [%] | inhibition at 1 µM ([2]; compounds of Table 3) [%]
99 | 7 | 0 | – | – | – | CCOC(=O)C1(CNc2nc3ccc(Oc4ccnc(C(=O)NC)c4)cc3o2)CCCCC1 [Compound 75, 1-{[6-(2-Methylcarbamoyl-pyridin-4-yloxy)-benzooxazol-2-ylamino]-methyl}-cyclohexane-carboxylic acid ethyl ester] | 0 | –
98 | 9 | 0 | – | – | – | CNC(=O)c1cc(Oc2ccc3nc(NCc4c(Cl)cccc4Cl)oc3c2)ccn1 [Compound 76, 4-[2-(2,6-Dichloro-benzylamino)-benzooxazol-6-yloxy]-pyridine-2-carboxylic acid methylamide] | 0 | –
99 | 12 | 0 | – | – | – | CNC(=O)c1cc(Oc2ccc3nc(NCc4cc(OC)ccc4OC)oc3c2)ccn1 [Compound 83, 4-[2-(2,5-Dimethoxy-benzyl-amino)-benzooxazol-6-yloxy]-pyridine-2-carboxylic acid methylamide] | 26 | –
97 | 7 | 17 | – | – | – | CNC(=O)c1cc(Oc2ccc3nc(NCc4c(OC)cc(OC)cc4OC)oc3c2)ccn1 [Compound 113, 4-[2-(2,4,6-Trimethoxy-benzylamino)-benzooxazol-6-yloxy]-pyridine-2-carboxylic acid methylamide] | 19 | –
100 | 92 | 15 | – | – | – | CNC(=O)c1cc(Oc2ccc3nc(NCc4cc(Cl)ccc4OC)oc3c2)ccn1 [Compound 114, 4-[2-(5-Chloro-2-methoxy-benzylamino)-benzooxazol-6-yloxy]-pyridine-2-carboxylic acid methylamide] | 36 | –
99 | 88 | 18 | – | – | – | CNC(=O)c1cc(Oc2ccc3nc(NCc4cc(F)ccc4OC)oc3c2)ccn1 [Compound 115, 4-[2-(5-Fluoro-2-methoxy-benzylamino)-benzooxazol-6-yloxy]-pyridine-2-carboxylic acid methylamide] | 21 | –
100 | 100 | 18 | – | – | – | CNC(=O)c1cc(Oc2ccc3nc(NCc4c(F)cccc4OC)oc3c2)ccn1 [Compound 116, 4-[2-(2-Fluoro-6-methoxy-benzylamino)-benzooxazol-6-yloxy]-pyridine-2-carboxylic acid methylamide] | 10 | –
99 | 18 | 32 | – | – | – | CNC(=O)c1cc(Oc2ccc3nc(NCC4COc5ccccc5O4)oc3c2)ccn1 (stereo not shown) [Compound 119, 4-{2-[(2,3-Dihydro-benzo-[1,4]dioxin-2-ylmethyl)-amino]-benzooxazol-6-yloxy}-pyridine-2-carboxylic acid methylamide] | 13 | –
100 | 9 | 30 | – | – | – | CNC(=O)c1cc(Oc2ccc3nc(NCc4c(Cl)cccc4OC)oc3c2)ccn1 [Compound 121, 4-[2-(2-Chloro-6-methoxy-benzylamino)-benzooxazol-6-yloxy]-pyridine-2-carboxylic acid methylamide] | 17 | –
100 | 53 | 0 | – | – | – | CNC(=O)c1cc(Oc2ccc3nc(NCc4ccc5c(c4)OCCO5)oc3c2)ccn1 [Compound 122, 4-{2-[(2,3-Dihydro-benzo-[1,4]dioxin-6-ylmethyl)-amino]-benzooxazol-6-yloxy}-pyridine-2-carboxylic acid methylamide] | 19 | –
99 | 15 | 2 | – | – | – | CNC(=O)c1cc(Oc2ccc3nc(NCCc4cccc5c4OCCO5)oc3c2)ccn1 [Compound 123, 4-{2-[2-(2,3-Dihydro-benzo-[1,4]dioxin-5-yl)-ethylamino]-benzooxazol-6-yloxy}-pyridine-2-carboxylic acid methylamide] | 0 | –
– | – | – | 99 | 0 | 10 | CNC(=O)c1cc(Oc2ccc3nc(NCC(O)COc4ccccc4)sc3c2)ccn1 (stereo not shown) [Compound 124] | – | 18
– | – | – | 100 | 90 | 70 | CNC(=O)c1cc(Oc2ccc3nc(NCCC(C)C)sc3c2)ccn1 [Compound 130] | – | 79
– | – | – | 100 | 100 | 37 | CNC(=O)c1cc(Oc2ccc3nc(NCc4ccccc4)sc3c2)ccn1 [Compound 138] | – | 105
– | – | – | 100 | 27 | 100 | CNC(=O)c1cc(Oc2ccc3nc(NC4C[C@@H]5CC[C@H]4C5)sc3c2)ccn1 (stereo partly shown) [Compound 140] | – | 25
100 | 1 | 0 | – | – | – | CNC(=O)c1cc(Oc2ccc3nc(NCC4CCOCC4)sc3c2)ccn1 [Compound 141, 4-{2-[(tetrahydro-pyran-4-ylmethyl)-amino]-benzothiazol-6-yloxy}-pyridine-2-carboxylic acid methylamide] | 22 | –
99 | 100 | 100 | – | – | – | CNC(=O)c1cc(Oc2ccc3nc(NCc4ccccc4N(C)C)sc3c2)ccn1 [Compound 144, 4-[2-(2-Dimethylamino-benzylamino)-benzothiazol-6-yloxy]-pyridine-2-carboxylic acid methylamide] | 100 | –
– | – | – | 100 | 38 | 12 | CNC(=O)c1cc(Oc2ccc3nc(NCC4COc5ccccc5O4)sc3c2)ccn1 (stereo not shown) [Compound 144] | – | 41
– | – | – | 96 | 23 | 2 | CNC(=O)c1cc(Oc2ccc3nc(NCCc4cnccn4)sc3c2)ccn1 [Compound 148] | – | 1
– | – | – | 100 | 29 | 21 | CNC(=O)c1cc(Oc2ccc3nc(N[C@H](C)C(C)C)sc3c2)ccn1 [Compound 149] | – | 48
– | – | – | 100 | 24 | 2 | CNC(=O)c1cc(Oc2ccc3nc(N[C@@H](C)C(C)C)sc3c2)ccn1 [Compound 150] | – | 22
99 | 5 | 0 | – | – | – | CNC(=O)c1cc(Oc2ccc3nc(NCc4ccc(OC)c(OC)c4)sc3c2)ccn1 [Compound 151, 4-[2-(3,4-Dimethoxy-benzyl-amino)-benzothiazol-6-yloxy]-pyridine-2-carboxylic acid methylamide] | 26 | –
97 | 0 | 91 | – | – | – | CNC(=O)c1cc(Oc2ccc3nc(NCc4ccccc4N4CCCCC4)sc3c2)ccn1 [Compound 153, 4-[2-(2-Piperidin-1-yl-benzylamino)-benzothiazol-6-yloxy]-pyridine-2-carboxylic acid methylamide] | 63 | –
– | – | – | 100 | 43 | 17 | O[C@@H]1CCCC[C@H]1Nc1nc2ccc(Oc3ccnc(-c4cncs4)c3)cc2s1 [Compound 157] | – | 42
99 | 11 | 2 | – | – | – | CNC(=O)c1cc(Oc2ccc3nc(NCc4c(Cl)cccc4Cl)sc3c2)ccn1 [Compound 158, 4-[2-(2,6-Dichloro-benzylamino)-benzothiazol-6-yloxy]-pyridine-2-carboxylic acid methylamide] | 1 | –

— patent publication US8173689B2 (Novartis AG, priority 2006, dated 2012)
